# Source: patent US20240132521A1, “COMPOUNDS AND METHODS FOR MODULATING HER2” (Iambic Therapeutics, Inc., priority 2022, published 2024)
# Key:
# Format in all cases: cell-based
# [1] = target: BaF3_HER2WT cells (Homo sapiens, UniProt P04626); assay: Cell growth inhibition assay (CellTiterGlo), BaF3_HER2WT; details: 3-day treatment, CellTiterGlo, read-out: Cell growth inhibition activity, HER2 WT
# [2] = target: BaF3_HER2YVMA cells (Homo sapiens, UniProt P04626, DUP772-775, cells depend on it); assay: Cell growth inhibition assay (CellTiterGlo), BaF3_HER2YVMA; details: 3-day treatment, CellTiterGlo, read-out: Cell growth inhibition activity, HER2 - YVMA
# BaF3_HER2YVMA cells, sequence (P04626 with tags, fused parts or gaps DUP772-775): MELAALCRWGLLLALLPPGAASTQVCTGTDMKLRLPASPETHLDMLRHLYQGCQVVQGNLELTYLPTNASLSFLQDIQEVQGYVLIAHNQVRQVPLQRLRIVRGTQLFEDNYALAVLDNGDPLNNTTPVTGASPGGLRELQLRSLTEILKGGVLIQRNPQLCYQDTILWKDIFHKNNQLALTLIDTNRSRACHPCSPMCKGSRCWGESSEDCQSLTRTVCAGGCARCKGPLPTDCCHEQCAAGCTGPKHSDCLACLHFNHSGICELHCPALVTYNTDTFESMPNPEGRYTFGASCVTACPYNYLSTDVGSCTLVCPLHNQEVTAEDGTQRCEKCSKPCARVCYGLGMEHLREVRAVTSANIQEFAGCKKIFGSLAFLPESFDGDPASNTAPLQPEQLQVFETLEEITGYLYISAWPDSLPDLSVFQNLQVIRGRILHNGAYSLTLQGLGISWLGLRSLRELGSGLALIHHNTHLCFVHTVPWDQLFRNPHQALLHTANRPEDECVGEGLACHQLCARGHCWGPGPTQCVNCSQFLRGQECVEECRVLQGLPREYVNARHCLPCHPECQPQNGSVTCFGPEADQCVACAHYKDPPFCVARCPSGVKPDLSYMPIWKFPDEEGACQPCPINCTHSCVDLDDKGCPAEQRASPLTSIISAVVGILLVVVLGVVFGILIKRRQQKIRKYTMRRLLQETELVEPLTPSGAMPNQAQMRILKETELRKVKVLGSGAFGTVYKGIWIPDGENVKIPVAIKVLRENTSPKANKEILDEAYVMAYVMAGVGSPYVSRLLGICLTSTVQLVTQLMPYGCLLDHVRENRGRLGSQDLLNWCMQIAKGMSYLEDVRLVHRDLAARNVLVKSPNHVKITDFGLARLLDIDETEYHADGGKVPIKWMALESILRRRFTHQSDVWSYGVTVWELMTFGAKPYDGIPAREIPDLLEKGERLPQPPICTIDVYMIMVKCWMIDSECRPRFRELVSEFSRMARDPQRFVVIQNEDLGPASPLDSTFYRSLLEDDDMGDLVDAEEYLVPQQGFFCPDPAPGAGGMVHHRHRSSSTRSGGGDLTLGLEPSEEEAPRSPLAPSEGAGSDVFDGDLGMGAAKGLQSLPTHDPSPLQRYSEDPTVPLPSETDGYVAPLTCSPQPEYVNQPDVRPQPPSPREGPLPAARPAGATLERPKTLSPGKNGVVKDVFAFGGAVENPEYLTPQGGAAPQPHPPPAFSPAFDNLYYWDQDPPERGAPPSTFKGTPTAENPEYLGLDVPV
# [3] = target: BaF3_EGFRWT cells (Homo sapiens, UniProt P00533); assay: Cell growth inhibition assay (CellTiterGlo), BaF3_EGFRWT; details: 3-day treatment, CellTiterGlo, read-out: Cell growth inhibition activity, EGFR WT
# BaF3_EGFRWT cells, sequence (P00533 whole entry, change not shown): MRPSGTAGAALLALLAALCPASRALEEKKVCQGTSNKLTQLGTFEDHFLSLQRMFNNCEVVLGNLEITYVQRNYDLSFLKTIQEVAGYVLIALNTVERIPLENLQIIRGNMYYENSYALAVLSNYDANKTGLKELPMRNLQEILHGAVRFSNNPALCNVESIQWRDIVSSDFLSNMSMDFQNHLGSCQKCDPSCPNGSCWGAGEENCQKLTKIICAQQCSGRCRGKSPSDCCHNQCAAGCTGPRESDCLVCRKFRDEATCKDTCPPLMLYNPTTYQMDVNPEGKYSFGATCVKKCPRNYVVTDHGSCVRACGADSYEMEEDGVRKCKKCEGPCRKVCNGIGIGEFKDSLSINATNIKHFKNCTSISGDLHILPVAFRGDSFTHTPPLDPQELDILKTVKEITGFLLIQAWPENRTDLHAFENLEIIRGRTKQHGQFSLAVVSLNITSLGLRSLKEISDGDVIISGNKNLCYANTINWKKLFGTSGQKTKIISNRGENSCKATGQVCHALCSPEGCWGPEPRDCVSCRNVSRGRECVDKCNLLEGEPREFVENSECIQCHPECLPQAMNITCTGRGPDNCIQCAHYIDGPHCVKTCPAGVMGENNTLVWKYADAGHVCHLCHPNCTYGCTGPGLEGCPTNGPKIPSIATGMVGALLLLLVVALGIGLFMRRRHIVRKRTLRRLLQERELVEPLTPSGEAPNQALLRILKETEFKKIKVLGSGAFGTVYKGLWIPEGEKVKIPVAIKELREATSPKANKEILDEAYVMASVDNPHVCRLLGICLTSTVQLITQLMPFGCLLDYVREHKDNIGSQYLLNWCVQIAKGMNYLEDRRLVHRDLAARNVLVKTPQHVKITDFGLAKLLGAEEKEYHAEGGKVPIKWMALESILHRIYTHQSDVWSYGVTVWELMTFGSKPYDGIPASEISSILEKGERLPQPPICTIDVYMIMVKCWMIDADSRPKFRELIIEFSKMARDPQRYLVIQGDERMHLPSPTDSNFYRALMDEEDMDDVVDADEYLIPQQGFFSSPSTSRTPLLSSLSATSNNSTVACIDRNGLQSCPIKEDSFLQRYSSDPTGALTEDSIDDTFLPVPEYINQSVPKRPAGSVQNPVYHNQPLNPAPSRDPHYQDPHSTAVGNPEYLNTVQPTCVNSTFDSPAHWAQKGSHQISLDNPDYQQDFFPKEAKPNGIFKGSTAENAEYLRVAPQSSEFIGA
# BaF3_HER2WT cells, sequence (P04626 whole entry, change not shown): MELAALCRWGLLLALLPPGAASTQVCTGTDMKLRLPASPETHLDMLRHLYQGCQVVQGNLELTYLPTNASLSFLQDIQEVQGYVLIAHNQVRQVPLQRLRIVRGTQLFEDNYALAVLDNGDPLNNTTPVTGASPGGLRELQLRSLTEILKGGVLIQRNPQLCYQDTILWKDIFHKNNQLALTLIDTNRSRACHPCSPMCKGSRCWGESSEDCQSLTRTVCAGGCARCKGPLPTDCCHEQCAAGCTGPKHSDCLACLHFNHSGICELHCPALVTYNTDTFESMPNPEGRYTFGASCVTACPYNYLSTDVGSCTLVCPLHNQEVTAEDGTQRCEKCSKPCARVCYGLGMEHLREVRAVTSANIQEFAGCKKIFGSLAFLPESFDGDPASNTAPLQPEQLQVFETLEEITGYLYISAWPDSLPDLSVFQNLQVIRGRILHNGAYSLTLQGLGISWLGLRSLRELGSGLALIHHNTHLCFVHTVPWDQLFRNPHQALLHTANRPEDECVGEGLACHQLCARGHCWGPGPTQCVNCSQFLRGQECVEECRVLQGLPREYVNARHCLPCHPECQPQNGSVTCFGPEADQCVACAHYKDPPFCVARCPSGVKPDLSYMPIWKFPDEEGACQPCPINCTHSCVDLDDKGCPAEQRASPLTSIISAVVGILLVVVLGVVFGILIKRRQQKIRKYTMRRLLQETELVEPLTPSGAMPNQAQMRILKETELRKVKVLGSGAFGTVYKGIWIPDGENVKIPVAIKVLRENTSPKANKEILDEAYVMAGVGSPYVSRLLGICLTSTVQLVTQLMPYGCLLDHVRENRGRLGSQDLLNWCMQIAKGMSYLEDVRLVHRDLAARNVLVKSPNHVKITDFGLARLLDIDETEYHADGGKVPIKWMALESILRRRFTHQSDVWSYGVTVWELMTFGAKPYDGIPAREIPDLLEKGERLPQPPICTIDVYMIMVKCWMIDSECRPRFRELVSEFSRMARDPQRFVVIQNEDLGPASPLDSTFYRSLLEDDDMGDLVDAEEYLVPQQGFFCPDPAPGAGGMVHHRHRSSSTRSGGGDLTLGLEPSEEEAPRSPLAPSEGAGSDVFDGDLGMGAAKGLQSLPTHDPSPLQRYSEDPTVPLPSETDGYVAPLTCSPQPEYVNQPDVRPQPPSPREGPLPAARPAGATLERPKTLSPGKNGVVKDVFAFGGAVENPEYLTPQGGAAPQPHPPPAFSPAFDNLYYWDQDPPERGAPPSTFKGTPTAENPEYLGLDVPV
Structure (SMILES),GI50 [1] [µM],GI50 [2] [µM],GI50 [3] [µM]
"Cc1cc(Nc2ncnn3ccc(C4CCN(C(=O)/C=C/CN5CC(F)C5)CC4)c23)ccc1Oc1ccc2c(c1)ncn2C [Example 162, (E)-4-(3-fluoroazetidin-1-yl)-1-(4-(4-((3-methyl-4-((1-methyl-1H-benzo[d]imidazol-5-yl)oxy)phenyl)amino)pyrrolo[2,1-f][1,2,4]triazin-5-yl)piperidin-1-yl)but-2-en-1-one]",0.2 to 0.5,0.5 to 1.5,1.5 to 5
"CO[C@@H]1CN(C/C=C/C(=O)N2CC(c3ccn4ncnc(Nc5ccc(Oc6ccc7c(c6)ncn7C)c(C)c5)c34)C2)C[C@H]1OC [Example 166, (E)-4-((3R,4R)-3,4-dimethoxypyrrolidin-1-yl)-1-(3-(4-((3-methyl-4-((1-methyl-1H-benzo[d]imidazol-5-yl)oxy)phenyl)amino)pyrrolo[2,1-f][1,2,4]triazin-5-yl)azetidin-1-yl)but-2-en-1-one]",< 0.2,< 0.2,1.5 to 5
"CO[C@H]1CN(C/C=C/C(=O)N2CCC(c3ccn4ncnc(Nc5ccc(Oc6ccc7c(c6)ncn7C)c(C)c5)c34)CC2)C[C@H]1OC [Example 167, (E)-4-((3R,4S)-3,4-dimethoxypyrrolidin-1-yl)-1-(4-(4-((3-methyl-4-((1-methyl-1H-benzo[d]imidazol-5-yl)oxy)phenyl)amino)pyrrolo[2,1-f][1,2,4]triazin-5-yl)piperidin-1-yl)but-2-en-1-one]",< 0.2,< 0.2,1.5 to 5
"CO[C@@H]1CN(C/C=C/C(=O)N2CCC(c3ccn4ncnc(Nc5ccc(Oc6ccc7c(c6)ncn7C)c(C)c5)c34)CC2)C[C@H]1OC [Example 168, (E)-4-((3R,4R)-3,4-dimethoxypyrrolidin-1-yl)-1-(4-(4-((3-methyl-4-((1-methyl-1H-benzo[d]imidazol-5-yl)oxy)phenyl)amino)pyrrolo[2,1-f][1,2,4]triazin-5-yl)piperidin-1-yl)but-2-en-1-one]",< 0.2,< 0.2,1.5 to 5
"CO[C@H]1CN(C/C=C/C(=O)N2CCC(c3ccn4ncnc(Nc5ccc(Oc6ccn7ncnc7c6)c(C)c5)c34)CC2)C[C@H]1OC [Example 169, (E)-1-(4-(4-((4-([1,2,4]triazolo[1,5-a]pyridin-7-yloxy)-3-methylphenyl)amino)pyrrolo[2,1-f][1,2,4]triazin-5-yl)piperidin-1-yl)-4-((3R,4S)-3,4-dimethoxypyrrolidin-1-yl)but-2-en-1-one]",< 0.2,< 0.2,1.5 to 5
"CO[C@@H]1CN(C/C=C/C(=O)N2CCC(c3ccn4ncnc(Nc5ccc(Oc6ccn7ncnc7c6)c(C)c5)c34)CC2)C[C@H]1OC [Example 170, (E)-1-(4-(4-((4-([1,2,4]triazolo[1,5-a]pyridin-7-yloxy)-3-methylphenyl)amino)pyrrolo[2,1-f][1,2,4]triazin-5-yl)piperidin-1-yl)-4-((3R,4R)-3,4-dimethoxypyrrolidin-1-yl)but-2-en-1-one]",< 0.2,< 0.2,1.5 to 5
"Cc1cc(Nc2ncnn3ccc(C4(F)CCN(C(=O)/C=C/CN(C)C)CC4)c23)ccc1Oc1ccn2ncnc2c1 [Example 175, (E)-1-(4-(4-((4-([1,2,4]triazolo[1,5-a]pyridin-7-yloxy)-3-methylphenyl)amino)pyrrolo[2,1-f][1,2,4]triazin-5-yl)-4-fluoropiperidin-1-yl)-4-(dimethylamino)but-2-en-1-one]",1.5 to 5,1.5 to 5,1.5 to 5
"Cc1cc(Nc2ncnn3ccc(C4CCN(C(=O)/C=C/CN(C)C)CC4(F)F)c23)ccc1Oc1ccn2ncnc2c1 (stereo not drawn) [Example 176, (E)-1-(4-(4-((4-([1,2,4]triazolo[1,5-a]pyridin-7-yloxy)-3-methylphenyl)amino)pyrrolo[2,1-f][1,2,4]triazin-5-yl)-3,3-difluoropiperidin-1-yl)-4-(dimethylamino)but-2-en-1-one]",< 0.2,< 0.2,1.5 to 5
"CNC/C=C/C(=O)N1CCC(c2ccn3ncnc(Nc4ccc(Oc5ccn6ncnc6c5)c(C)c4)c23)CC1 [Example 177, (E)-1-(4-(4-((4-([1,2,4]triazolo[1,5-a]pyridin-7-yloxy)-3-methylphenyl)amino)pyrrolo[2,1-f][1,2,4]triazin-5-yl)piperidin-1-yl)-4-(methylamino)but-2-en-1-one]",< 0.2,< 0.2,1.5 to 5
"Cc1cc(Nc2ncnn3ccc(C(=O)NCCCN(C)C)c23)ccc1N [Example 181, 4-((4-amino-3-methylphenyl)amino)-N-(3-(dimethylamino)propyl)pyrrolo[2,1-f][1,2,4]triazine-5-carboxamide]",1.5 to 5,> 5,> 5

# The next lines start with the values.
GI50 [1] [µM],GI50 [2] [µM],GI50 [3] [µM],Structure (SMILES)
< 0.2,< 0.2,1.5 to 5,"Cc1cc(Nc2ncnn3ccc(C4CN(C(=O)/C=C/CN(C)C)C4)c23)ccc1Oc1ccn2ccnc2c1 [Example 157, (E)-4-(dimethylamino)-1-(3-(4-((4-(imidazo[1,2-a]pyridin-7-yloxy)-3-methylphenyl)amino)pyrrolo[2,1-f][1,2,4]triazin-5-yl)azetidin-1-yl)but-2-en-1-one]"
< 0.2,< 0.2,0.5 to 1.5,"Cc1cc(Nc2ncnn3ccc(C4CN(C(=O)/C=C/CN(C)C)C4)c23)ccc1Oc1cc2ncnn2cn1 [Example 158, (E)-1-(3-(4-((4-([1,2,4]triazolo[1,5-c]pyrimidin-7-yloxy)-3-methylphenyl)amino)pyrrolo[2,1-f][1,2,4]triazin-5-yl)azetidin-1-yl)-4-(dimethylamino)but-2-en-1-one]"
< 0.2,< 0.2,1.5 to 5,"Cc1cc(Nc2ncnn3ccc(C4CN(C(=O)/C=C/C56CCCN5CCC6)C4)c23)ccc1Oc1ccn2ncnc2c1 [Example 159, (E)-1-(3-(4-((4-([1,2,4]triazolo[1,5-a]pyridin-7-yloxy)-3-methylphenyl)amino)pyrrolo[2,1-f][1,2,4]triazin-5-yl)azetidin-1-yl)-3-(tetrahydro-1H-pyrrolizin-7a(5H)-yl)prop-2-en-1-one]"
< 0.2,< 0.2,1.5 to 5,"Cc1cc(Nc2ncnn3ccc(C4CN(C(=O)/C=C\C56CCCN5CCC6)C4)c23)ccc1Oc1ccn2ncnc2c1 [Example 160, (Z)-1-(3-(4-((4-([1,2,4]triazolo[1,5-a]pyridin-7-yloxy)-3-methylphenyl)amino)pyrrolo[2,1-f][1,2,4]triazin-5-yl)azetidin-1-yl)-3-(tetrahydro-1H-pyrrolizin-7a(5H)-yl)prop-2-en-1-one]"
< 0.2,< 0.2,1.5 to 5,"Cc1cc(Nc2ncnn3ccc(C4CN(C(=O)/C=C/CN5CC(F)C5)C4)c23)ccc1Oc1ccc2c(c1)ncn2C [Example 161, (E)-4-(3-fluoroazetidin-1-yl)-1-(3-(4-((3-methyl-4-((1-methyl-1H-benzo[d]imidazol-5-yl)oxy)phenyl)amino)pyrrolo[2,1-f][1,2,4]triazin-5-yl)azetidin-1-yl)but-2-en-1-one]"
< 0.2,< 0.2,1.5 to 5,"Cc1cc(Nc2ncnn3ccc(C4CCN(C(=O)/C=C/CN5CC(F)C5)CC4)c23)ccc1Oc1ccn2ncnc2c1 [Example 163, (E)-1-(4-(4-((4-([1,2,4]triazolo[1,5-a]pyridin-7-yloxy)-3-methylphenyl)amino)pyrrolo[2,1-f][1,2,4]triazin-5-yl)piperidin-1-yl)-4-(3-fluoroazetidin-1-yl)but-2-en-1-one]"
< 0.2,< 0.2,1.5 to 5,"Cc1cc(Nc2ncnn3ccc(C4CCN(C(=O)/C=C/CN5CCC(F)C5)CC4)c23)ccc1Oc1ccn2ncnc2c1 (stereo not drawn) [Example 164, (E)-1-(4-(4-((4-([1,2,4]triazolo[1,5-a]pyridin-7-yloxy)-3-methylphenyl)amino)pyrrolo[2,1-f][1,2,4]triazin-5-yl)piperidin-1-yl)-4-(3-fluoropyrrolidin-1-yl)but-2-en-1-one]"
< 0.2,< 0.2,1.5 to 5,"CO[C@H]1CN(C/C=C/C(=O)N2CC(c3ccn4ncnc(Nc5ccc(Oc6ccc7c(c6)ncn7C)c(C)c5)c34)C2)C[C@H]1OC [Example 165, (E)-4-((3R,4S)-3,4-dimethoxypyrrolidin-1-yl)-1-(3-(4-((3-methyl-4-((1-methyl-1H-benzo[d]imidazol-5-yl)oxy)phenyl)amino)pyrrolo[2,1-f][1,2,4]triazin-5-yl)azetidin-1-yl)but-2-en-1-one]"
